Measured values as given in patent US7347970B2, “Biocides based on silanol terminated silanes and siloxanes” (University of Florida Research Foundation, Inc., priority 2004, dated 2008).

Key:
Assay type in all cases: cell-based
E. coli [1] = experiment: Antimicrobial (bioactivity) test, plate counts and dilution method, log reduction; settings: for bioactivity against E. coli: with cosolvent propylene glycol n-propyl ether, FIG. 6
Protocol: Bioactivity (toxicity) tests were performed using silanols according to the invention along with some controls. E. coli was provided as the target microorganism. […] 20th ed. L. S. Clesceri, A. E. Greenberg, A. D. Eaton (eds.) Washington, D.C. was employed to measure the number of viable cells after the bioactivity tests. The collected sample underwent serial dilutions in which the original sample collected was diluted in a series of dilution tubes. Each succeeding dilution tube will have only one-tenth the number of microbial cells as the preceding tube. Then the samples of the dilution were used to inoculate Petri plates containing solid medium. The sample on the plates was plated evenly over the surface of the solid medium. Colonies grew only on surface of medium and could be counted. This count was used to estimate the number of viable bacterial in the original sample.
Log reduction represents the number of E. coli eliminated through the silanol or other chemical treatment. The experiments were operated for an hour with proper stirring in aqueous solution. […] Log reduction 8 represents the detection limit for the experiment performed, and thus represents complete removal.
(§1) Nine (9) ml of D.I. water was mixed with 1 ml of E. coli solution, and antimicrobial materials for 1 hr with magnetic stirring, then sampling was carried out. The plate counting method as described above was employed to measure the viability of the E. coli.

E. coli [2] = experiment: Minimum lethal concentration (MLC) against E. coli; settings: for minimum lethal concentration compared with corresponding alcohol: E. coli, FIG. 10
Protocol: The minimum lethal concentration against E. coli for each silanol is defined as the maximum dilution of the product that will kill a test organism. […] The antimicrobial effect increased with an increase in the number of the alkyl chain of the substituent R, in the order of methyl<ethyl<n-propyl<n-butyl as shown FIG. 5.
Antimicrobial test was carried out to compare the bioactivity of fragrance ingredient of alcohols and the corresponding silanols according to the invention against E. coli. Alcohols, 2-methyl-1-phenyl-2-propanol corresponding to benzyldimethylsilanol, 2-methyl-4-phenyl-2-butanol corresponding to phenethyldimethylsilanol, were obtained from Sigma-Aldrich, and the silanols were prepared by the hydrolysis of chlorosilane.
as §1

E. coli [3] = experiment: Antimicrobial (bioactivity) test, plate counts and dilution method, log reduction; settings: 0.2 (% g/g), 10 minute mixing, FIG. 3; below detection limit
[4] = 0.1% g/g with cosolvent propylene glycol n-propyl ether, FIG. 6/7
[5] = 2 (% g/g), FIG. 4, complete removal

Compound	log reduction of E. coli (E. coli [1]; [4])	log reduction of E. coli (E. coli [1]; [5])	also measured
CC(C)(C)[Si](C)(C)O [t-butyldimethylsilanol]	8 log	–	–
C[Si](C)(C)O [trimethyisilanol]	8 log	–	–
CC(C)(C)O [t-butanol, reference compound]	–	–	bioactivity against E. coli (E. coli [1]): did not provide significant bioactivity
vinylphenylmethylsilanol	–	eight	–
C[Si]1(C)O[Si](C)(C)O[Si](C)(C)O[Si](C)(C)O1 [D4, octamethylcyclotetrasiloxane, reference compound]	–	–	bioactivity against E. coli (E. coli [1]): did not provide significant bioactivity
C[Si](C)(O)Cc1ccccc1 [Benzyldimethylsilanol (UF), Benzyldimethylsilanol]	–	–	minimum lethal concentration compared with corresponding alcohol (E. coli [2]): lower than their corresponding alcohols
C[Si](C)(O)CCC(F)(F)F [3,3,3-trifluoropropyldimethylsilanol]	–	eight	–
C[Si](C)(O)CCc1ccccc1 [Phenethyldimethylsilanol (UF), Phenethyldimethylsilanol]	–	–	minimum lethal concentration compared with corresponding alcohol (E. coli [2]): lower than their corresponding alcohols
diphenylmethylsilanol	8 log	–	–
C=C[Si](C)(C)O [vinyldimethylsilanol]	–	eight	–
C[Si](C)(O)c1ccccc1 [Phenyldimethylsilanol]	–	eight	–
CC[Si](O)(CC)CC [triethylsilanol]	8 log	eight	log reduction of E. coli (E. coli [1]; 2.5 (% g/g), FIG. 2, 8 = detection limit): 8 log; antimicrobial effect (log reduction of E. coli) (E. coli [1]; 10 (% g/g), one hour stirring in aqueous solution, FIG. 1): high antimicrobial effect; antimicrobial effect by minimum lethal concentration (E. coli [2]; FIG. 5): strong antimicrobial effect; reduction of E. coli (E. coli [3]): more than eight
